Experimental findings from patent US20250345383A1, “INTRANASAL ADMINISTRATION OF POLYSULFIDE” (The General Hospital Corporation, priority 2022, published 2025) are described below.

In data set [1] the test system is primary cortical neurons. In words: Relative sulfane sulfur levels in primary cortical neurons (SSip-1 DA). The format is cell-based, mouse. As to conditions: incubation at 10 μM for 20 minutes; relative to untreated neurons. The protocol: Primary cortical neurons were isolated from the cerebral cortices of C57BL/6J mice of both sexes at embryonic day 15, as previously described 39. Primary cortical neurons were maintained at 37° C. in a humidified tissue culture chamber with 5% CO2 and cells were used on day 11 after harvest.
(§1) Primary cortical neurons or SH-SY5Y cells, a human neuroblastoma cell line (American Type Culture Collection, Manassas, VA, USA), were incubated with SSip-1 DA […] at 37° C. for 20 minutes in the dark. Cells were washed with pre-warmed HBSS containing calcium and magnesium (Thermo Fisher Scientific, Waltham, MA, USA) and then cells were incubated with GSSSG, sodium trisulfide (Na2S3; Dojindo Molecular Technologies, Inc., Rockville, MD, USA), PTN-SSS, or vehicle alone for 20 minutes at 37° C. in the dark. Fluorescence intensities were measured using a microplate reader.

In data set [2] the test system is SH-SY5Y cells. In words: Cell viability of SH-SY5Y cells incubated with MPP+ (crystal violet assay). The format is cell-based, human. The conditions noted are these: MPP+ 5 mM, 24 h. As to the method:
(§2) Cell viability assays was performed to examine cell viabilities of SH-SY5Y cells or murine primary cortical neurons 24 h after the addition of MPP^+ (5 mM for SH-SY5Y, 50 μM for primary cortical neurons) with vehicle (PBS), Na2S (Sigma-Aldrich), Na2S3 (Dojindo Molecular Technologies, Inc), GSSSG (Glutathione trisulfide, Kyowa Hakko Bio Co., Ltd., Tokyo, Japan), LA (α-Lipoic acid, Sigma-Aldrich) or LASSS (α-Lipoic acid trisulfide, Kyowa Hakko Bio Co., Ltd., Tokyo, Japan). Cell viability was measured using the crystal violet assay.

The subject of another data set is mice subjected to SCI. Kind of data set: Mouse model of spinal cord ischemia (SCI): delayed paraplegia, hindlimb motor function by Basso mouse scale (BMS). The format is in vivo.
The subject of data set [3] is primary cortical neurons. In words: Cell viability after oxygen and glucose deprivation/reoxygenation (OGD/R), primary cortical neurons. In kind it is cell-based, mouse. As to conditions: GSSSG at 30 μM, GSH at 60 μM, GSSG at 30 μM; vs vehicle-only treated cells. The protocol:
Primary cortical neurons were isolated from the cerebral cortices of C57BL/6J mice of both sexes at embryonic day 15, as previously described 39. Primary cortical neurons were maintained at 37° C. in a humidified tissue culture chamber with 5% CO2 and cells were used on day 11 after harvest. […] After reoxygenation, cell viability and cell injury were assessed using crystal violet and lactate dehydrogenase (LDH) assays, as previously described^39.

The test system of data set [4] is SH-SY5Y cells. Kind of data set: Cell viability after OGD/R, SH-SY5Y cells. In kind it is cell-based, human. The protocol:
After reoxygenation, cell viability and cell injury were assessed using crystal violet and lactate dehydrogenase (LDH) assays, as previously described^39.

In data set [5] the test system is SH-SY5Y cells. In words: Relative sulfane sulfur levels in SH-SY5Y cells (SSip-1 DA). The conditions noted are these: PTN-SSS 10-50 μM; vs vehicle-only treated cells. In kind it is cell-based, human. The protocol:
as §1

Data set [6] can be described thus: Water solubility of PTN-SSS. The format is physicochemical.
Data set [7] in a line: Stability of PTN-SSS in solution. In kind it is physicochemical. As to conditions: pH 4.0-9.0 at room temperature.
Data set [8] concerns sulfane sulfur in olfactory bulb and forebrain, whole spinal cord. In words: Relative sulfane sulfur levels in olfactory bulb and forebrain and whole spinal cord after intranasal PTN-SSS (SSip-1). As to conditions: 30 minutes after intranasal 50 mg/kg PTN-SSS; vs vehicle alone. In kind it is in vivo, mouse. The protocol:
At 30 minutes after intranasal administration of 50 mg/kg of PTN-SSS, the olfactory bulb and forebrain and the whole spinal cord were harvested. Tissues were homogenized in HBSS containing […] of SSip-1. The fluorescence intensities of supernatants were measured.

The subject of data set [9] is murine primary cortical neurons. In words: Cell viability of murine primary cortical neurons incubated with MPP+ (crystal violet assay). The format is cell-based, mouse. As to conditions: MPP+ 50 μM, 24 hours. As to the method:
as §2

Data set [10] in a line: LC-MS/MS of ^34S-labeled GSSSG and sulfane sulfur species in CNS and plasma after intranasal GS^34SSG. In kind it is in vivo, mouse. The protocol: We used LC-MS/MS analysis to measure the amount of ^34S-labeled GSSSG ([^32S2, ^34S]GSSSG) in the CNS and plasma after intranasal administration of GS^34SSG, an isotope of endogenous GSSSG^9,35,36. The ratios of ^34S-labeled sulfane sulfur species ([^32S, ^34S]GSSH, [^32S, ^34S]cysteine hydropersulfide (CysSSH), and [^32S2, ^34S]cysteine trisulfide (CysSSSCys)) to endogenous sulfane sulfur species ([^32S2]GSSH, [^32S2]CysSSH, and […]) were also quantitatively evaluated. At 30 minutes after intranasal administration of 50 mg/kg of GS^34SSG, blood was obtained and four different central nervous tissues were harvested: olfactory bulb and forebrain; brainstem; cervical and thoracic spinal cord, and lumbar spinal cord. A total of 30 mg of each tissue was homogenized in 300 μl of ice-cold methanol solution containing 5 mM β-(4-hydroxyphenyl)ethyl iodoacetamide (HPE-IAM; Santa Cruz Biotechnology, Dallas, TX, USA). Twenty-five μl of plasma was mixed with 75 μl of ice-cold methanol solution containing 5 mM HPE-IAM. Samples were incubated for 20 minutes at 37° C. in the dark. After centrifugation (14,000×g for tissues, 1,870×g for plasma, 10 minutes, 4° C.), the supernatant was separated and diluted with 0.1% formic acid for LC-MS/MS analysis, and the pellet was sonicated to measure the protein concentration by BCA assay. The amount of [^32S2, ^34S]GSSSG was quantified in selective reaction monitoring (SRM) with precursor ion (647.14 m/z), product ion (389.1 m/z), and higher energy collisional dissociation (21 v). The ratios of [^32S, ^34S]GSSH to [^32S2]GSSH, [^32S, ^34S]CysSSH to [^32S2]CysSSH, and [^32S2, ^34S]CysSSSCys to [^32S3]CysSSSCys were calculated from their peak area measured by Dionex UltiMate 3000 RS UPLC-Orbitrap Exploris 480 mass spectrometer (Thermo Fisher Scientific, Waltham, MA, USA). In brief, samples were subjected to the UPLC system with a Hypersil Gold C-18 (100×2.1 mm, 3.0 μm, Thermo Fisher Scientific, Waltham, MA, USA) column and were then eluted by a linear methanol gradient of the mobile phase (0-90%, 15 minutes) in the presence of 0.1% formic acid at a flow rate of 0.2 ml/minute at 40° C. The raw data were analyzed by Compound Discoverer 3.3 software (Thermo Fisher Scientific, Waltham, MA, USA). The molecular weights of these sulfane sulfur species combined with HPE-IAM were determined based on previous reports^9,11,37.

The mark [11] stands for this setting: 30 minutes after intranasal 50 mg/kg GS^34SSG, mean ± SD.

Text for mice subjected to SCI: Adult C57BL/6J mice (12-18 weeks old) of both sexes were purchased from Jackson Laboratory (Bar Harbor, ME, USA). Both male and female mice were used in experiments to investigate the neuroprotective effect of GSSSG on motor function after SCI. […] All mice were housed in a temperature and humidity-controlled room in the animal center with a 12-hour light/dark cycle, and were provided with food and water ab libitum. To permit access by mice that were recovering from surgery, additional food pellets were inserted into hydrated gel placed on the bedding. A randomized paired design was used to minimize the variability between each treatment group. Mice were paired based on weight, age, delivery dates, and when possible, holding cages. After the pairing, mice were randomly assigned to different treatments.
The surgical procedures to produce delayed paraplegia in mice were performed as previously described^6 (FIG. 2A). Mice were anesthetized with 5% isoflurane in 100% O2 and tracheally intubated with a 20-gauge catheter (Angiocath; Becton Dickinson, Franklin Lakes, NJ, USA). […] The paravertebral muscle temperature was measured using a T-type implantable thermocouple probe (IT-18) and a T-type pod (ADInstruments, Colorado Springs, CO, USA). […] A median sternotomy extended from the apex of the manubrium to the second rib. The aortic arch was gently isolated between the left common carotid artery (LCCA) and the left subclavian artery (LSA), avoiding the vagus nerve and the left recurrent laryngeal nerve. […] After ischemia, the clips were removed in reverse order. Incisions were closed in layers and mechanical ventilation was discontinued. After stable spontaneous respiration was confirmed, mice were extubated.
The previously described surgical procedures^6 were modified as follows. The respiratory rate during the procedure was increased to 230 breaths/minute, because hyperventilation promotes the occurrence of delayed paraplegia caused by spinal cord ischemia^33. A laser Doppler perfusion monitor (moorVMS-LDF1; Moor Instruments, Millwey, UK) was used to monitor the femoral artery blood flow^28,29. […] To improve the accuracy of surgical procedures, a microscope (Leica MZ95; Leica Microsystems, Buffalo Grove, IL, USA) was used to isolate the aortic arch and place the clips.
Study drugs were administered intranasally using a single-channel pipettor. Mice were anesthetized with 3% isoflurane using a non-rebreathing circuit with a mouse nose cone (VetEquip, Inc., Livermore, CA, USA). While the drugs were administered, the nose cone was removed and mice were allowed to breathe air. Approximately 6 μL of each drug was administered into the mouse's nostrils and the mouse inhaled the droplets during inspiration. […]

As for `[Na+].[Na+].[S-]S[S-]` [Na2S3, sodium trisulfide, reference compound], the “levels of intracellular sulfane sulfur in primary cortical neurons” value in the data set with primary cortical neurons [1] is “increased levels of intracellular sulfane sulfur”. Besides, the “viability of MPP+-treated SH-SY5Y cells” value with SH-SY5Y cells [2] (10 μM each) is “increased the viability”.
Regarding `N[C@@H](CCC(=O)N[C@@H](CS)C(=O)NCC(=O)O)C(=O)O` [GSH, glutathione, reference compound], the “mice in which development of delayed paraplegia was prevented” value in the data set on mice subjected to SCI (male mice, n=11 per group, intranasal at 0, 8, 23, 32 hours after surgery, GSSSG 50 mg/kg, GSH 45.2 mg/kg) turned out to be 27%. In the data set with primary cortical neurons [3], the “cell viability after OGD/R, crystal violet assay (GSSSG, GSH, GSSG comparison)” value is reported as “did not improve cell viability”.
Consider `[Na+].[Na+].[S-2]` [Na2S], for which, in the data set on SH-SY5Y cells [2] (Na2S doses between 1 and 100 μM), the “viability of SH-SY5Y cells treated with MPP+” value is given as “did not improve the viability”.
With `CC(C)(CO)[C@@H](O)C(=O)NCCC(=O)NCCSSSCCNC(=O)CCNC(=O)[C@H](O)C(C)(C)CO` [PTN-SSS, pantethine trisulfide], the “SH-SY5Y viability after OGD/R, crystal violet assay” value was “significantly improved” in the data set with SH-SY5Y cells [4] (PTN-SSS at 10 μM, 25 μM, or 50 μM, vs vehicle-only treated cells) and “did not improve cell viability” with SH-SY5Y cells [4] (PTN-SSS at 100 μM). For the same compound, the “male mice rescued from delayed paraplegia” value with mice subjected to SCI (PTN-SSS study, n=9 per group, intranasal PTN-SSS 50 mg/kg or PTN 47.3 mg/kg at 0, 8, 23, 32 hours after surgery) stood at 66%. Besides, the “sulfane sulfur levels in SH-SY5Y cells” value with SH-SY5Y cells [5] is recorded as “increased significantly”. In [6], this compound registered a water solubility of over 50 g/L. Besides, the stable in solution result in data set [7] was “at least 4 days”. For the same compound, the “sulfane sulfur levels in the olfactory bulb and forebrain and the whole spinal cord” value in data set [8] is on record as “increased sulfane sulfur levels”.
As for `O=C(O)CCCCC1CCSSS1` (centres unmarked) [LA-SSS, 1,2,3-trithiane-4-pentanoic acid], the “protection of murine primary cortical neurons from the effects of MPP+ treatment” value in [9] is given as “protected”.
Turning to `N[C@@H](CCC(=O)N[C@@H](CS[34S]SC[C@H](NC(=O)CC[C@H](N)C(=O)O)C(=O)NCC(=O)O)C(=O)NCC(=O)O)C(=O)O` [GS^34SSG], in data set [10] (setting [11]), the “[^32S2, ^34S]GSSSG concentration in plasma” value worked out at 25 ± 10 nM; the “[^32S2, ^34S]GSSSG in brainstem” value worked out at 226±101 pmol/mg protein; the “[^32S2, ^34S]GSSSG in cervical and thoracic spinal cord” value came to 414±98 pmol/mg protein; the “[^32S2, ^34S]GSSSG in lumbar spinal cord” value is 317±111 pmol/mg protein. In data set [10] (setting [11]), the “[^32S2, ^34S]GSSSG in olfactory bulb and forebrain” value stood at 128±67 pmol/mg protein; the “ratio of [^32S2, ^34S]CysSSSCys to [^32S3]CysSSSCys in brain and spinal cord” value was found to be 31.8±9.8; the “ratio of [^32S, ^34S]GSSH to [^32S2]GSSH in brain and spinal cord” value amounted to 6.5±2.8. In addition, the “concentration of ^34S-labeled GSSSG in the central nervous system” value in [10] (30 minutes after intranasal GS^34SSG, all CNS tissues) amounted to 268±140 pmol/mg protein. For the same compound, in data set [10] (after intranasal GS^34SSG, worked out from previously reported endogenous CysSSH level), the “level of ^34S-labeled CysSSH in lumbar spinal cord” value was about 18 pmol/mg protein. For the same compound, in [10] (after intranasal GS^34SSG, worked out from previously reported endogenous GSSH level), the “level of ^34S-labeled GSSH in lumbar spinal cord” value is given as “approximately 1,600 pmol/mg protein”.
